Molecular target: T1, human HSL (Homo sapiens, UniProt Q05469)
T1 construct: generate a full length human HSL ORF with a 3′-His6 tag; made in house; host or cells: High 5 insect cells (baculovirus, pFast-BAC)
T1 sequence (Q05469 1-1076): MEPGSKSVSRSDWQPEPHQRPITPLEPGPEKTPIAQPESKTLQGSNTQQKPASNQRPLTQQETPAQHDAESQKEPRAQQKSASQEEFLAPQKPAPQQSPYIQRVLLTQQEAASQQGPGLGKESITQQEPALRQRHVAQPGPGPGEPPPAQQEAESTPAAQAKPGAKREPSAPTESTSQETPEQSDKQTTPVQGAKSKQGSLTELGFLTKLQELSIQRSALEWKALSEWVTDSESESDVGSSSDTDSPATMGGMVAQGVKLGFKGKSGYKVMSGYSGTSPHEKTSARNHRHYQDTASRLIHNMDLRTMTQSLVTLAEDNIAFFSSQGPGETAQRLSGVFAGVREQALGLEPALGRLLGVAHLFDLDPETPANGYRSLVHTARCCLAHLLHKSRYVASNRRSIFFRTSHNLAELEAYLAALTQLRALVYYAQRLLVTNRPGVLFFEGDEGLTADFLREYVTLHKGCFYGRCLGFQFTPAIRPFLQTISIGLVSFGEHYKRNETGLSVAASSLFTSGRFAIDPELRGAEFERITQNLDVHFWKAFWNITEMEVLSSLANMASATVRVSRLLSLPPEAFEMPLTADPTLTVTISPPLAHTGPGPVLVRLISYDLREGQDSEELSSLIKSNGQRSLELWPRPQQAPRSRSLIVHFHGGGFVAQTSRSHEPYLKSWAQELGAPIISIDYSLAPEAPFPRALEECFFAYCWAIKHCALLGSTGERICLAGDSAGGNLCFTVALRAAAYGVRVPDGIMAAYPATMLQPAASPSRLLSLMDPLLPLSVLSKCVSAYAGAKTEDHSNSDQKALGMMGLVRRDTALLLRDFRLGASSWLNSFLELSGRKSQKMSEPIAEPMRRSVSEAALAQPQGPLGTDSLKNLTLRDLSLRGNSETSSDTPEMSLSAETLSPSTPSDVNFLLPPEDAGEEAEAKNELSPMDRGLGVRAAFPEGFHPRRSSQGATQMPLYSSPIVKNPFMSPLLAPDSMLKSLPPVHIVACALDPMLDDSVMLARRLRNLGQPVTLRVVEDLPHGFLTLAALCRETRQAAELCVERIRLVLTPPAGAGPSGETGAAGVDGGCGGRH
Assay: Human Hormone-Sensitive Lipase (HSL) enzyme inhibition assay (colorimetric, DMPT substrate)
Type: biochemical
Details: human full length HSL-His6, 2,3-dimercapto-1-propanol tributyrate substrate, 37° C. 20 minutes, absorbance at 405 nm; read-out: HSL hum IC50
Outline: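 Full-length human HSL with C-terminal His6, expressed in baculovirus-infected High 5 cells and Ni-NTA purified, was added (15 ug/ml stock) to 1.5 mM DMPT in 100 mM MOPS pH 7.2, 0.2 mg/ml fatty acid-free BSA containing compound. After 20 min at 37 °C, DTNB with SDS/Triton X-100 was added; A405 read after 15 min at RT.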

**Q.** `O=C1N(c2ccc(OC(F)(F)F)cc2)CC[C@]12CC[C@@](O)(CCO)CC2` [Example 118, (5α,8α)-8-Hydroxy-8-(2-hydroxy-ethyl)-2-(4-trifluoromethoxy-phenyl)-2-aza-spiro[4.5]decan-1-one] was tested. Which IC50 did it give?
**A.** 100 nM

**Q.** `CC(C)(C)c1ccc(N2CC[C@]3(CC[C@@H](Cc4ccn[nH]4)CC3)C2=O)cc1` [Example 364, (5α,8β)-2-(4-tert-Butyl-phenyl)-8-(2H-pyrazol-3-ylmethyl)-2-aza-spiro[4.5]decan-1-one] was tested. Which IC50 did it give?
**A.** 10 nM

**Q.** How did the IC50 turn out when `O=C1CCC2(CC1)CCN(c1ccc(OC(F)(F)F)cc1)C2=O` [Example 54, 2-(4-Trifluoromethoxy-phenyl)-2-aza-spiro[4.5]decane-1,8-dione] was run?
**A.** 640 nM

**Q.** For `CCCOC[C@]1(O)CC[C@]2(CCN(c3ccc(O[C@H](C)C(F)(F)F)nc3)C2=O)CC1` [Example 312, (5α,8α)-8-Hydroxy-8-propoxymethyl-2-[6-((R)-2,2,2-trifluoro-1-methyl-ethoxy)-pyridin-3-yl]-2-aza-spiro[4.5]decan-1-one], which IC50 is on record?
**A.** 10 nM

**Q.** With `CCCOC[C@]1(O)CC[C@@]2(CCN(c3ccc(OCC(F)(F)F)nc3)C2=O)CC1` [Example 266, (5α,8β)-8-Hydroxy-8-propoxymethyl-2-[6-(2,2,2-trifluoro-ethoxy)-pyridin-3-yl]-2-aza-spiro[4.5]decan-1-one] as the compound, how does the IC50 read?
**A.** 370 nM

**Q.** Which IC50 does the source give for `CC(C)(C)c1ccc(N2CCC3(CCC(O)(COc4ccccn4)CC3)C2=O)cc1` (stereo not drawn) [Example 352, (5α,8α)-2-(4-tert-Butyl-phenyl)-8-hydroxy-8-(pyridin-2-yloxymethyl)-2-aza-spiro[4.5]decan-1-one] here?
**A.** 30 nM

**Q.** For `C[C@@H](Oc1ccc(N2CC[C@]3(CC[C@@](O)(COCc4ccccc4)CC3)C2=O)cc1)C(F)(F)F` [Example 144, (5α,8α)-8-(Benzyloxymethyl)-8-hydroxy-2-[4-((R)-2,2,2-trifluoro-1-methyl-ethoxy)-phenyl]-2-aza-spiro[4.5]decan-1-one], which IC50 is on record?
**A.** 10 nM

**Q.** Which IC50 does the source give for `CC(C)c1ccc(N2CC[C@]3(CC[C@@](O)(C(C)C)CC3)C2=O)cn1` [Example 102, (5α,8α)-8-Hydroxy-8-isopropyl-2-(6-isopropylpyridin-3-yl)-2-aza-spiro[4.5]decan-1-one] here?
**A.** 100 nM

**Q.** How did the IC50 turn out when `O=C(NCc1ccc(F)cc1)O[C@H]1CC[C@@]2(CCN(c3ccc(OC(F)(F)F)cc3)C2=O)CC1` [Example 15, (4-Fluoro-benzyl)-carbamic acid [(5α,8β)-1-oxo-2-(4-trifluoromethoxy-phenyl)-2-aza-spiro[4.5]dec-8-yl]ester] was run?
**A.** 70 nM

**Q.** `C[C@@H](Oc1ccc(N2CC[C@]3(CC[C@](O)(COCC(F)F)CC3)C2=O)cc1)C(F)(F)F` [Example 300, (5α,8β)-8-(2,2-Difluoro-ethoxymethyl)-8-hydroxy-2-[4-((R)-2,2,2-trifluoro-1-methyl-ethoxy)-phenyl]-2-aza-spiro[4.5]decan-1-one] was tested. Which IC50 did it give?
**A.** 300 nM

**Q.** How did the IC50 turn out when `CCC[C@]1(O)CC[C@]2(CCN(c3ccc(C(C)C)nc3)C2=O)CC1` [Example 101, (5α,8α)-8-Hydroxy-2-(6-isopropylpyridin-3-yl)-8-propyl-2-aza-spiro[4.5]decan-1-one] was run?
**A.** 110 nM

**Q.** For `CCC[C@]1(O)CC[C@]2(CCN(c3ccc(C(O)C(F)(F)F)cc3)C2=O)CC1` (mixture of isomers) [Example 133, (5α,8α)-8-Hydroxy-8-propyl-2-(4-(2,2,2-trifluoro-1-hydroxyethyl)phenyl)-2-aza-spiro[4.5]decan-1-one], which IC50 is on record?
**A.** 30 nM

**Q.** With `O=C1N(c2ccc([C@@H](O)C(F)(F)F)cc2)CC[C@]12CC[C@@](O)(COCC(F)(F)F)CC2` [Example 155, (5α,8α)-8-Hydroxy-8-(2,2,2-trifluoro-ethoxymethyl)-2-[4-((R)-2,2,2-trifluoro-1-hydroxy-ethyl)-phenyl]-2-aza-spiro[4.5]decan-1-one] as the compound, how does the IC50 read?
**A.** 9 nM

**Q.** How did the IC50 turn out when `CC(C)(C)S(=O)(=O)C[C@]1(O)CC[C@]2(CCN(c3ccc(OCC(F)(F)F)cc3)C2=O)CC1` [Example 322, (5α,8α)-8-Hydroxy-8-(2-methyl-propane-2-sulfonylmethyl)-2-[4-(2,2,2-trifluoro-ethoxy)-phenyl]-2-aza-spiro[4.5]decan-1-one] was run?
**A.** 20 nM

**Q.** How did the IC50 turn out when `COCCc1ccc(N2CC[C@]3(CC[C@@](O)(CC(C)(C)C)CC3)C2=O)cc1` [Example 126, (5α,8α)-8-(2,2-Dimethyl-propyl)-8-hydroxy-2-[4-(2-methoxy-ethyl)-phenyl]-2-aza-spiro[4.5]decan-1-one] was run?
**A.** 10 nM

**Q.** `CC(C)(C)c1ccc(N2CCC3(CCC(C(O)(O)C(F)(F)F)CC3)C2=O)cc1` (stereo not shown) [Example 362, 2-(4-tert-Butyl-phenyl)-8-(2,2,2-trifluoro-1,1-dihydroxy-ethyl)-2-aza-spiro[4.5]decan-1-one] was tested. Which IC50 did it give?
**A.** 10 nM

**Q.** How did the IC50 turn out when `CC[C@]1(O)CC[C@@]2(CCN(c3ccc(CC(F)(F)F)cc3)C2=O)CC1` [Example 80, (5α,8β)-8-Ethyl-8-hydroxy-2-[4-(2,2,2-trifluoro-ethyl)-phenyl]-2-aza-spiro[4.5]decan-1-one] was run?
**A.** 910 nM

**Q.** Which IC50 does the source give for `CCCc1ccc(N2CC[C@]3(CC[C@](O)(CC)CC3)C2=O)cc1` [Example 84, (5α,8β)-8-Ethyl-8-hydroxy-2-(4-propyl-phenyl)-2-aza-spiro[4.5]decan-1-one] here?
**A.** 4300 nM

**Q.** Which IC50 does the source give for `COCCC[C@]1(O)CC[C@@]2(CCN(c3ccc(OC(F)(F)F)cc3)C2=O)CC1` [Example 91, (5α,8β)-8-Hydroxy-8-(3-methoxy-propyl)-2-(4-trifluoromethoxy-phenyl)-2-aza-spiro[4.5]decan-1-one] here?
**A.** 896 nM

**Q.** For `CCCO[C@H](c1ccc(N2CC[C@]3(CC[C@@](O)(COC)CC3)C2=O)cc1)C(F)(F)F` [Example 141, (5α,8α)-8-Hydroxy-8-(methoxymethyl)-2-(4-((R)-2,2,2-trifluoro-1-propoxyethyl)phenyl)-2-aza-spiro[4.5]decan-1-one], which IC50 is on record?
**A.** 30 nM

**Q.** `Cc1ccc(O[C@H]2CC[C@@]3(CCN(c4ccc(OC(F)(F)F)cc4)C3=O)CC2)nn1` [Example 21, (5α,8β)-8-(6-Methyl-pyridazin-3-yloxy)-2-(4-trifluoromethoxy-phenyl)-2-aza-spiro[4.5]decan-1-one] was tested. Which IC50 did it give?
**A.** 100 nM

**Q.** `C[C@@H](Oc1ccc(N2CC[C@]3(CC[C@@](O)(CO)CC3)C2=O)cc1)C(F)(F)F` [Example 145, (5α,8α)-8-Hydroxy-8-(hydroxymethyl)-2-[4-((R)-2,2,2-trifluoro-1-methyl-ethoxy)-phenyl]-2-aza-spiro[4.5]decan-1-one] was tested. Which IC50 did it give?
**A.** 390 nM

**Q.** How did the IC50 turn out when `O=C(NCc1ccccc1F)O[C@H]1CC[C@@]2(CCN(c3ccc(OC(F)(F)F)cc3)C2=O)CC1` [Example 14, (2-Fluoro-benzyl)-carbamic acid [(5α,8β)-1-oxo-2-(4-trifluoromethoxy-phenyl)-2-aza-spiro[4.5]dec-8-yl]ester] was run?
**A.** 20 nM

**Q.** With `O=C1N(c2ccc(OCC(F)(F)F)nc2)CC[C@]12CC[C@@](O)(COCC(F)F)CC2` [Example 295, (5α,8α)-8-(2,2-Difluoro-ethoxymethyl)-8-hydroxy-2-[6-(2,2,2-trifluoro-ethoxy)-pyridin-3-yl]-2-aza-spiro[4.5]decan-1-one] as the compound, how does the IC50 read?
**A.** 40 nM

**Q.** For `O=C1N(c2ccc(CC(F)(F)F)cc2)CC[C@]12CC[C@](O)(COCC(F)F)CC2` [Example 302, (5α,8β)-8-(2,2-Difluoro-ethoxymethyl)-8-hydroxy-2-[4-(2,2,2-trifluoro-ethyl)-phenyl]-2-aza-spiro[4.5]decan-1-one], which IC50 is on record?
**A.** 510 nM

**Q.** `CCC[C@]1(O)CC[C@]2(CCN(c3ccc([C@H](O)C(F)(F)F)cc3)C2=O)CC1` [Example 133a, (5α,8α)-8-Hydroxy-8-propyl-2-[4-((S)-2,2,2-trifluoro-1-hydroxy-ethyl)-phenyl]-2-aza-spiro[4.5]decan-1-one] was tested. Which IC50 did it give?
**A.** 50 nM

**Q.** For `COC[C@]1(O)CC[C@]2(CCN(c3ccc(O[C@H](C)C(F)(F)F)nc3)C2=O)CC1` [Example 152, (5α,8α)-8-Hydroxy-8-methoxymethyl-2-[6-((R)-2,2,2-trifluoro-1-methyl-ethoxy)-pyridin-3-yl]-2-aza-spiro[4.5]decan-1-one], which IC50 is on record?
**A.** 50 nM

**Q.** With `O=C(NCCO)O[C@H]1CC[C@@]2(CCN(c3ccc(OC(F)(F)F)cc3)C2=O)CC1` [Example 27, (2-Hydroxy-ethyl)-carbamic acid [(5α,8β)-1-oxo-2-(4-trifluoromethoxy-phenyl)-2-aza-spiro[4.5]dec-8-yl]ester] as the compound, how does the IC50 read?
**A.** 180 nM

— patent US8440710B2, “HSL inhibitors useful in the treatment of diabetes” (Hoffmann-La Roche Inc., priority 2009, dated 2013)
